Data: publication PMC12328218 (Nature, 2025)
Read-outs that look alike come from different tables or passages of the source.

Key:
Type in all cases: cell-based, Mycobacterium tuberculosis
[1] = tested on: JNJ-6640-treated M. tuberculosis
[2] = tested on: M. tuberculosis CRISPRi purF knockdown strains
[3] = tested on: M. tuberculosis H37Rv CRISPRi PurF low knockdown strain; assay: microbe, parasite or virus in culture

O=c1[nH]cnc2nc[nH]c12 [Hypoxanthine]
effect of nucleobase addition on JNJ-6640-treated M. tuberculosis [1]: rescue
rescue of JNJ-6640 activity [1]: rescues JNJ-6640 activity
concentration partially rescuing inhibition of de novo purine biosynthesis [2]: exceeding 0.1 mM

COc1nc2ccc(Br)cc2cc1[C@@H](c1ccccc1)[C@@](O)(CCN(C)C)c1cccc2ccccc12 [Bedaquiline]
EC50 [3]: 44 nM
change in susceptibility following purF transcript knockdown [3]: no change
EC50 ([3]; Mycobacterium tuberculosis, H37RV): 61 nM

O=c1[nH]c(=O)c2nc[nH]c2[nH]1 [Xanthine]
effect of nucleobase addition on JNJ-6640-treated M. tuberculosis [1]: no substantial effect

Nc1nc2nc[nH]c2c(=O)[nH]1 [Guanine]
effect of nucleobase addition on JNJ-6640-treated M. tuberculosis [1]: no substantial effect

Nc1ncnc2[nH]cnc12 [Adenine]
effect of nucleobase addition on JNJ-6640-treated M. tuberculosis [1]: no substantial effect
effect on rescue of purF knockdown [2]: limited effect
